The values that follow come from the METLIN SMRT retention time set (Domingo-Almenara et al. 2019).

A short description of this data set: gradient 5% acetonitrile 3 min, to 50% in 2 min, to 85% in 15 min, held 3 min, 100 µL/min. To be noted: column: Zorbax Extend-C18 2.1 x 50 mm; eluents: water / acetonitrile, 0.1% formic acid. The essentials: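 The mobile phases were water and acetonitrile, each with 0.1% formic acid, pumped at 100 μL/min through a Zorbax Extend-C18 column (2.1 × 50 mm, 1.8 μm). Pure standards were injected as mixtures of ~100 molecules and detected by a quadrupole time-of-flight mass spectrometer in positive and negative ionization mode. Retention time came from computationally picked adduct peaks, each inspected by hand.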
`O=C(CSc1nnc(CCc2nc3ccccc3[nH]2)o1)NCc1c(F)cccc1F`: the RP-LC retention time was 571 s.
In the case of `COc1cc(NC(=O)N2CCC(CC(=O)N3CCN(c4ccccn4)CC3)CC2)cc(OC)c1OC`, the RP-LC retention time worked out at 576 s.
In the case of `O=C1CCCC(=O)N1CCS(=O)(=O)NCc1cccc(Oc2ccc(F)cc2)c1` it was 840 s; in that of `CC(C)c1cc(C(=O)Nc2ccc(Cl)cc2)nc2ccnn12`, 1060 s; in that of `CCc1nc2cc(N3CCC(C(=O)N4CCCC4)CC3)cnc2nc1CC`, 714 s.
In the case of `CC(C)Cc1cc(-c2nn3c(CSc4ccccc4)nnc3s2)n[nH]1`, the RP-LC retention time was found to be 948 s.
In the case of `CC(C)CCNC(=O)NCCc1cn(C)c2ncccc12` it was 649 s; in that of `N#Cc1cccc(-c2cn3c(n2)N(C(=O)COc2ccccc2)CCC3)c1`, 961 s; in that of `CCS(=O)(=O)Nc1cc(-c2nnc(C)o2)sc1C`, 738 s.
In the case of `O=S(=O)(NCCC1=CCCCC1)c1ccccc1-c1nc(-c2cccc(F)c2)no1` it was 1400 s; in that of `CC(C)c1ccc(CNC(=O)C2CCc3nc(N4CCCC4)ncc3C2)cc1` (stereo not drawn), 648 s.
The compound `O=C(Oc1ccccc1)N1CCC(CNS(=O)(=O)c2ccc(F)c(Cl)c2)CC1` displayed an RP-LC retention time of 951 s.
The compound `CCCN1C(=O)Cc2ccccc2C1C(=O)NCc1cccs1` (stereo not drawn) came in with an RP-LC retention time of 758 s.
In the case of `c1ccc(-c2nc3nccc(-c4ccccc4)n3n2)cc1` it was 907 s; in that of `COc1cccc2c1C(=O)c1c(O)c3c(c(O)c1C2=O)C[C@@](O)(C(C)=O)C[C@@H]3OC1CC(N(C)C)C(O)C(C)O1` (stereo partly drawn), 666 s.
In turn, `COc1nccnc1N1CCC(NC(=O)c2ccc3cc[nH]c3c2)C1` (stereo not drawn) came in with an RP-LC retention time of 633 s.
The result for `CCOc1ccc2nc(NC(=O)C3CCCN3S(=O)(=O)c3cc(C(=O)OC)n(C)c3)sc2c1` (stereo not drawn) reads 976 s.
Consider `COc1cc(OC)cc(C(=O)Nc2ccc(N3CCN(C4CCCC4)C3=O)nc2)c1`, for which the RP-LC retention time came out at 829 s.
In the case of `Cc1cccc(NC(=O)Cn2nc3c(Oc4cccc(Cl)c4)nccn3c2=O)c1` it was 899 s; in that of `Cc1nnc(-c2coc(S(=O)(=O)N3CCCCC3C)c2)o1` (stereo not drawn), 809 s; in that of `CCn1cc(-c2ccc(OC)cc2)cc1C(=O)N1CCCCCC1`, 1080 s.
In the case of `CN1c2cc(C(=O)N3CCN(c4ccccc4)CC3)ccc2C(=O)N2CCCCC21` (stereo not drawn) it was 823 s.
The result for `CCOC(=O)C1CCC(CNC(=O)N2CCC(N3CCN(Cc4ccccc4)C(=O)C3=O)CC2)CC1` (stereo not drawn) reads 734 s.
Regarding `O=C(Cn1ncc2c(N3CCN(c4ccccn4)CC3)ncnc21)Nc1cc(F)ccc1F`, the RP-LC retention time amounted to 615 s.
The result for `CCCCN(CC)C(=O)C1CCCN(c2ccc(-c3ccc(C)cc3)nn2)C1` (stereo not drawn) reads 796 s.
As to `COc1ccc(OC)c(-c2cc(C(=O)N3CCC(C(=O)NCC(F)(F)F)CC3)[nH]n2)c1`, the RP-LC retention time is 705 s.
In the case of `CS(=O)(=O)NC(=O)c1cc(Cl)c(COc2ccc(Cl)c(Cl)c2)cc1F` it was 1170 s; in that of `COc1ccc(/C=C2\Cc3ccccc3C2=O)cc1OC`, 892 s; in that of `CN(CCc1noc(COc2cccc(C(F)(F)F)c2)n1)C(=O)c1cccs1`, 941 s.
In the case of `CC(NC(=O)CCc1ccc2[nH]ccc2c1)c1ccccc1` (stereo not drawn) it was 812 s.
In the case of `Cc1nn2c(CNS(=O)(=O)c3ccc(C(C)C)cc3)c(-c3ccccc3)nc2s1` it was 1010 s.
For `Cc1cc(NC(=O)Cn2ccn3nc(-c4ccccc4)c(CO)c3c2=O)ccc1Br`, the RP-LC retention time worked out at 917 s.
The result for `CCOc1ccc(S(=O)(=O)N2CCC(C(=O)Nc3ccc4c(c3)OCCO4)CC2)cc1` reads 903 s; that for `CCc1ccc(C2=C(C)C(N3CCCN(C(=O)NC(C)(C)C)CC3)=NS2(=O)=O)cc1`, 928 s.
Consider `CC(C)n1c(=O)oc2cc(-c3noc(CNC(=O)Cc4ccc(Cl)cc4)n3)ccc21`, for which the RP-LC retention time amounted to 911 s.
The result for `CCC1CN2C=NC(N3CCN(C(=O)c4ccoc4)CC3)=CC2=N1` (stereo not drawn) reads 575 s; that for `O=C(c1cc(-c2cccs2)n(C2CCS(=O)(=O)C2)n1)N1CCN(c2ccccn2)CC1` (stereo not drawn), 602 s.
In the case of `CCc1nc(-c2csc(S(=O)(=O)N3CCCC(C(=O)Nc4ccccc4C)C3)c2)no1` (stereo not drawn) it was 1010 s.
In the case of `CCc1cc(C(=O)Nc2cc(C)ccc2F)nc2ccnn12` it was 1150 s; in that of `CCn1ccc2c(cc(C(=O)Nc3ccc(C)c(C)c3)n2C)c1=O`, 824 s; in that of `CCOc1ccc(Nc2nc(C(=O)Nc3ccc(S(N)(=O)=O)cc3)cs2)cc1`, 761 s.
Take `COc1ccc(NC(=O)C2CCN(S(=O)(=O)c3cc(-c4noc(C)n4)cs3)CC2)cc1Cl`: the RP-LC retention time is 946 s.
The result for `Cc1ccc(S(=O)(=O)N2C[C@@H]3C[C@H]2C[C@@H]3NC(=O)c2cccs2)cc1Cl` reads 992 s.
In the case of `COc1ccccc1-c1nc(-c2ccc3ncn(C)c3c2)no1` it was 674 s.
The result for `COC[C@@H]1CN(S(=O)(=O)Cc2ccccc2)C[C@H]1c1ccncc1` reads 637 s.
The compound `CC(NC(=O)c1cn2c(n1)CSCC2)c1ccc(F)cc1` (stereo not drawn) had an RP-LC retention time of 638 s.
The result for `CCN1C(=O)c2cc(C(=O)NCCc3ccccc3)nn2CC1(C)C(=O)NC1CCCC1` (stereo not drawn) reads 791 s; that for `CCN1CCN(CCNC(=O)c2csc(-c3ccc(N4CCCC4)nc3)n2)CC1`, 550 s.
The result for `Cc1sc(-c2cc(C(F)(F)F)[nH]n2)cc1S(=O)(=O)NCCc1cccs1` reads 990 s; that for `CCC(C)c1ccc(NC(=O)C2CCN(C(=O)C(C)(C)C)CC2)cc1` (stereo not drawn), 983 s; that for `CCC(Sc1nnc2c(n1)[nH]c1ccccc12)C(=O)Nc1nc(-c2ccccc2)cs1` (stereo not drawn), 1050 s.
`Cc1ccc(NC(=O)c2ccc(CN3CCN(C)CC3)cc2)cc1Nc1nc(-c2cccnc2)cs1` displayed an RP-LC retention time of 618 s.
The result for `O=C(Nc1ccc2c(c1)CCN2S(=O)(=O)c1ccccc1)Nc1cc(F)ccc1F` reads 1070 s; that for `COc1ccc(S(=O)(=O)N2CCCC(C(=O)NCC3CCCO3)C2)cc1Cl` (stereo not drawn), 785 s.
`CCOC(=O)C1CCN(C(=O)C2CCCN(c3cnc4nc(C)c(C)nc4c3)C2)CC1` (stereo not drawn): the RP-LC retention time worked out at 689 s.
`CCOC(=O)c1cc(S(=O)(=O)N2CCCC2C(=O)Nc2ccc(F)cc2C)cn1C` (stereo not drawn) gave an RP-LC retention time of 940 s.
In the case of `CCc1nc(-c2cc(S(=O)(=O)Nc3ccc(F)cc3F)c(C)s2)cs1` it was 994 s; in that of `COc1ccc(OC)c(CNC(=O)Cc2nnc(-c3cccs3)o2)c1`, 700 s.
The compound `O=C(Cc1c(Sc2ccc(F)cc2)[nH]c2ccccc12)N1CCN(c2ncccn2)CC1` yielded an RP-LC retention time of 966 s.
The result for `Cc1ccc(Cl)cc1N1CCN(C(=O)c2ccc3c(c2)NC(=O)C2CCCCN32)CC1` (stereo not drawn) reads 1080 s.
The result for `Cc1nc(C)c(C(=O)N2CCCCCCNC(=O)[C@@H]3CCCC[C@@H]32)s1` reads 727 s; that for `N#Cc1ccc(-n2cnc(C(=O)Nc3cccc(C(F)(F)F)c3)c2)cc1`, 889 s.
In turn, `CCCCN(C)C(=O)C1CCN(c2cc(Oc3ccc(CC)cc3)ncn2)CC1` returned an RP-LC retention time of 1060 s.
`Cc1ccc2[nH]cc(CCN3CC(C(=O)N4CCCCCC4)CC3=O)c2c1` (stereo not drawn) showed an RP-LC retention time of 800 s.
`O=c1ccc(-c2cccc(Br)c2)nn1Cc1nc(-c2cccs2)no1` yielded an RP-LC retention time of 1020 s.
The result for `O=C(NCC1CCCO1)C1CCN(C(=O)c2cccn2-c2cccnc2)CC1` (stereo not drawn) reads 602 s; that for `Cc1ccccc1OCC(=O)N1CCc2cc(-c3ccno3)ccc21`, 971 s; that for `COc1ccc(OCC(=O)N(C)CCc2noc(C3CCCCC3)n2)cc1`, 912 s.
The result for `Cc1ccc(-n2c(N3CCCC(C(=O)NCc4ccc(C)c(C)c4)C3)nc3ccsc3c2=O)cc1` (stereo not drawn) reads 987 s; that for `O=C(Nc1ccc(F)cc1F)N1CC(Cc2nc(-c3cnccn3)no2)C1`, 690 s; that for `COc1ccccc1CC(=O)N1CCN(c2ccc(-c3ccccn3)nn2)CC1`, 598 s.
In the case of `COc1ccc(OC)c(CCNC(=O)c2c(N3CCCC3=O)c3cc(F)ccc3n2C)c1` it was 919 s; in that of `Fc1ccccc1N1CCN(c2ncc3c(n2)CCN(Cc2cccc(F)c2F)C3)CC1`, 826 s; in that of `CCSc1nc(-c2ccccc2)c(NC(=O)c2ccc(S(=O)(=O)N(C)C)cc2)s1`, 1000 s.
In the case of `COc1ccccc1N1CCN(S(=O)(=O)c2cc(-c3cc(C(F)(F)F)on3)sc2C)CC1`, the RP-LC retention time is 1300 s.
`COc1cccc2cc(-c3nnc(NC(=O)NC4CCCC4)o3)oc12` yielded an RP-LC retention time of 830 s.
With `CCN(Cc1ccc(OC)cc1)Cc1cc(=O)n2cccc(C)c2n1`, the RP-LC retention time was 618 s.
The result for `CCCNC(=O)C1CCCN(c2ccc(SCC(=O)Nc3ccc(C)cc3Cl)nn2)C1` (stereo not drawn) reads 748 s.
